Measurements taken from patent US20260374739A1, “SMALL MOLECULAR WEIGHT CHEMICAL COMPOUND TO ANTAGONIZE EPH-EPHRIN TETRAMERIZATION AND INHIBIT BIDIRECTIONAL SIGNALING” (THE BOARD OF REGENTS OF THE UNIVERSITY OF TEXAS SYSTEM, priority 2022, published 2026).
“Also recorded” adds a separate entry of the source.

Experiments:
[1] = target: pre-formed EphrinB2-EphB1 tetramer (Homo sapiens, UniProt P54762); test: Octet competition of pre-existing tetramers, human EphrinB2-EphB1; format: binding; details: 2, 10, 50 μM
Protocol: (§1) Biophysical studies were conducted to explore if A20 is able to disrupt pre-existing stable tetramers, focusing on interactions of immobilized human EphrinB2 binding to soluble human EphB1 and EphB2, and immobilized mouse EphB2 binding to mouse EphrinB2 (FIGS. 29A-29C). In these experiments, sensor-chip immobilized proteins were first exposed to 50 nM of their soluble target protein for an 800 sec association step and 1,000 sec dissociation step to generate pre-formed stable tetramers, which were then subjected to a 1,000 sec competition step that included either 0, 2, 10, or 50 μM concentrations of A20 salt compound. […] The ability of A20 to disrupt pre-existing tetramers was most pronounced for human EB2-EphB2 and cognate murine EphB2-EB2 experiments and indicated a gradual ongoing dose-dependent decline in tetramers throughout the 1,000 sec competition step (and beyond if allowed) and irrespective of whether the human EphrinB2 or murine EphB2 was the immobilized protein.

EphB2, Cos1 cells = test: ligand:receptor cluster (spot) formation in Cos1 cells, immunofluorescence; format: cell-based; details: A20 40 μM; listed as A20
Protocol: FIG. 14 depicts representative fluorescent images and quantification showing that Cos1 cells exposed to pre-clustered EB2-Fc binds to EphB2 forming spots on the cell (green) that also contain phosphotyrosine (red, arrows).
To assess if A20 would reduce the ability of EphrinB2 to stimulate activation of the EphB tyrosine kinase domain in live cells, Cos1 cells that express endogenous EphB2 were exposed to pre-clustered EB2-Fc ectodomains in the presence or absence of A20 for 30 min. […] Stimulated cells were fixed on the coverslip and subjected to immunofluorescence (IF) with anti-Fc antibodies to detect ligand protein bound to receptor, which leads to formation of circular Eph-Ephrin tetramers that then cluster into large obvious spots on the cell surface by lateral migration through the plasma membrane and also contain anti-phosphotyrosine signal indicating activation of the receptor's kinase domain.

EphB2-EphrinB2 tetramer = EphB2-EphrinB2 tetramer (Homo sapiens, UniProt P29323); test: mass photometry; format: binding, mouse EphrinB2; details: 216 kDa without
Protocol: To verify the kinetic studies using the Octet system, mass photometry (MP) that uses optical detection to measure the mass of individual proteins and protein complexes in solution was employed. MP was used to determine the mass of EphB2 and EphrinB2 ectodomain proteins individually or after being combined and allowed to associate into tetramers for a 24 hr period either without or with 10 or 50 μM concentrations of the A20 salt (FIG. 26). For these experiments His-tagged proteins, human hEphB2-His and murine mEB2-His were used. […] During MP experiments EphB2 and EB2 when analyzed alone would each measure as a homodimer, and when the EphB2 and EphrinB2 proteins are combined, the average mass of the protein species shifted to a larger 216 kDa species (FIG. 26C). The size was as expected if two EphB2 and two EphrinB2 molecules complexed together into the stable circular tetramer (130+83=213 kDa). […] It is important to understand that the MP experiments described here are powerful, but also temporally limited because we can really only assess the protein species after interaction homeostasis has been achieved and for this experiment the proteins and A20 were allowed to incubate together for 24 hr before masses were determined.

EphB1-EB2 = target: T1, EphB1-EB2 (Rattus norvegicus, UniProt P09759); test: ELISA EB2-His binding to immobilized EphB1-Fc; design: species or system mouse EB2; details: 5 μM
T1 construct: mouse (Mus musculus) EB2-His ectodomain (Sino Biologicals), ELISA
Protocol: The 32 hits were then subjected to ELISA in which EphB1-Fc was first immobilized in 96 well Protein A plates, then soluble EB2-His was added with hit compound in triplicate, again at 5 μM. After 2 hr at RT to allow EB2-His binding to EphB1-Fc, wells were washed, incubated with nickel-activated horseradish peroxidase (HisProbe-HRP) to detect bound EB2-His protein, washed, and then incubated with ELISA Pico Chemiluminescent Substrate (both from Thermo-Fisher) before being read in a luminometer. A single-protein counter ELISA using the dual-tagged EphB2-His-Fc ectodomain protein was also run. […] For simplicity, we call this compound A20.

[2] = multi-day IP dosing tolerability; format: in vivo, mouse; details: multi-day dosing every 12 hr, up to 40 mg/kg
[3] = target: pre-formed EphB2-EphrinB2 tetramer (Mus musculus, UniProt P54763); test: Octet competition of pre-existing tetramers, mouse EphB2-EphrinB2; format: binding; details: 2, 10, 50 μM
Protocol: as §1

EphB4-Fc / EB2-His = target: T2, EphB4-Fc / EB2-His (Mus musculus, UniProt P54761); test: pulldown EB2-His to EphB4-Fc; format: binding; details: up to 250 μM for A20; listed as A20
T2 construct: soluble mouse EB2-His ectodomain, pulldown
T2 sequence (P54761 16-539 limits assumed): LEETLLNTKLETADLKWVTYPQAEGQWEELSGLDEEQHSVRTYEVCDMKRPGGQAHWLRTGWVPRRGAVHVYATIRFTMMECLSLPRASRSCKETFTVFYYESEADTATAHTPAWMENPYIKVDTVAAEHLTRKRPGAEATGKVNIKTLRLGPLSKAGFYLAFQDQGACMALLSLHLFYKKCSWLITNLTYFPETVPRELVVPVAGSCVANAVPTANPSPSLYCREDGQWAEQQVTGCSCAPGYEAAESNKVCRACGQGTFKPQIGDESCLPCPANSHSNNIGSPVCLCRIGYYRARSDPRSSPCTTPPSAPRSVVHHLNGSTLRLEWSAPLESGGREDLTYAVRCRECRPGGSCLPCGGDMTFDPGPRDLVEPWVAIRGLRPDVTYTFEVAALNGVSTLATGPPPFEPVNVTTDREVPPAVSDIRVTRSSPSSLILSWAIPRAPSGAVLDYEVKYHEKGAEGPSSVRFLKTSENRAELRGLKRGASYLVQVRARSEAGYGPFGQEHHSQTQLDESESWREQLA

Chain of EphB2-EphrinB2 tetramer (P29323 19-543 limits assumed): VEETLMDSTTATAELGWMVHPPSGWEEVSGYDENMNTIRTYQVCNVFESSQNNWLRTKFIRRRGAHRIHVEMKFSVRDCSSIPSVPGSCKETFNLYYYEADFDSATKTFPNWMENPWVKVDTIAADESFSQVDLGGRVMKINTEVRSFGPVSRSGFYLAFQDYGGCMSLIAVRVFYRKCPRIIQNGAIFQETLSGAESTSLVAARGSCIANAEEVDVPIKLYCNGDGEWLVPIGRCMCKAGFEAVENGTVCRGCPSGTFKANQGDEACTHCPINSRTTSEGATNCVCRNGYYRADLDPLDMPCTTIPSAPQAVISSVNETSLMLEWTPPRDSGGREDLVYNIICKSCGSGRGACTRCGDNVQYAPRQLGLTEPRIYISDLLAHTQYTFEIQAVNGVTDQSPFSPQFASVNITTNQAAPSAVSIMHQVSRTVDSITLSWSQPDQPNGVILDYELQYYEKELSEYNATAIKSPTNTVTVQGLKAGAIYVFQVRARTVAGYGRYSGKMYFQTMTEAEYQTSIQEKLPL
T1 sequence (P09759 18-538): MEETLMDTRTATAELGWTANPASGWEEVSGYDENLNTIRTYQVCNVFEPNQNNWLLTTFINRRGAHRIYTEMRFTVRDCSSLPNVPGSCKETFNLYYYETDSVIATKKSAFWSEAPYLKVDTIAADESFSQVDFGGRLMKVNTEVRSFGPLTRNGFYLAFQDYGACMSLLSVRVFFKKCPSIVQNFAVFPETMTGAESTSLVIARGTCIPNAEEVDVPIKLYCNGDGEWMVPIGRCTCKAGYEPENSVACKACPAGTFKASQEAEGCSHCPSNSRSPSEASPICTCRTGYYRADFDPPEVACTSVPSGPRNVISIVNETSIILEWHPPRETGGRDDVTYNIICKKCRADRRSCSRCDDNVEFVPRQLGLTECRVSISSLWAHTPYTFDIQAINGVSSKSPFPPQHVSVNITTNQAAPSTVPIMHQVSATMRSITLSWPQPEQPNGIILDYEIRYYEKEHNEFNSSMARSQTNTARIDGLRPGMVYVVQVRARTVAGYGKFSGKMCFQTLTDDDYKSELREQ
Chain of pre-formed EphrinB2-EphB1 tetramer (P54762 18-540 limits assumed): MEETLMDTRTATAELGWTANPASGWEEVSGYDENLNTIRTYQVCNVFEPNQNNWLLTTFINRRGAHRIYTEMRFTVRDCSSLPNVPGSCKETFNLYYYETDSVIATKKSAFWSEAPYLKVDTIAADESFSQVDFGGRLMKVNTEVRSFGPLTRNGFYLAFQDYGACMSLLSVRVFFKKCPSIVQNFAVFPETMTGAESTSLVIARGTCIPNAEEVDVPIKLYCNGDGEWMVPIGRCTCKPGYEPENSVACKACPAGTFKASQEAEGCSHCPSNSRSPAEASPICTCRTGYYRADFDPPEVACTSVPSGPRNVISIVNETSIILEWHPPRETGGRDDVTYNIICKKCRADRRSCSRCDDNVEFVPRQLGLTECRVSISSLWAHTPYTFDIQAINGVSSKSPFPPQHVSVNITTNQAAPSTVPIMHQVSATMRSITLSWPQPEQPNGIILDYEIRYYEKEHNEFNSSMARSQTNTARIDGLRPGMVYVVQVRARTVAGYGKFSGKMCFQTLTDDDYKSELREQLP
Chain of pre-formed EphB2-EphrinB2 tetramer (P54763 19-543 limits assumed): as the sequence (P29323 19-543 limits assumed) above, with S104L, S154N, Q520K counted along it

Oc1c(Br)cc(CN2CCOCC2)c2cccnc12 [Compound 5, 7-bromo-5-(morpholinomethyl)quinolin-8-ol]
competition of pre-formed tetramers [1]: clearly disrupted in a dose-dependent fashion some of the pre-existing EB2-EphB1 tetramers | ligand:receptor clusters on cell (EphB2, Cos1 cells): significantly reduced the ability of pre-clustered EB2-Fc to bind/cluster the EphB2 receptor to spots on the cell; also recorded: reduced the number of ligand: receptor clusters per cell | average mass of protein species (EphB2-EphrinB2 tetramer; 10 μM A20 salt): 158 kDa | average mass of protein species (EphB2-EphrinB2 tetramer; 50 μM A20 salt): 150 kDa | ELISA signal (EphB1-EB2): reduced signal in the two-protein ELISA | tolerability [2]: well tolerated | competition of pre-formed tetramers [3]: able to compete away in a dose-dependent manner a significant amount of the stable pre-formed tetramer complexes | pulldown EphB4-Fc binding to EB2-His (EphB4-Fc / EB2-His): only a weak ability to prevent EphB4-Fc from binding to EB2-His; also recorded: only weak/poor ability to antagonize soluble EB2-His binding
